Measured values as given in patent US4490370A, “Naphthylglycyl cephalosporin derivatives” (priority 1983, dated 1984).
Read-outs that look alike come from different tables or passages of the source.

Key:
P. prevoti = assay: Susceptibility of anaerobic cocci, agar-dilution, 24 hour MIC; assay type: cell-based; conditions: isolate 1293
Text: (§1) A typical and preferred compound provided by this invention is 7-(2-naphthylglycylamido)-3-methyl-3-cephem-4-carboxylic acid, the compound of Example 3. The antibacterial activity of this compound and several others of the invention has been determined in standard in vitro agar dilution assays against a variety of gram positive microorganisms. The following Tables present typical minimum inhibitory concentrations (MIC's) in μg/ml for the compounds when evaluated against the indicated microorganisms. MIC's for several known compounds are also presented for comparison.
(§2) Susceptibility of Anaerobic Cocci
(§3) Isolates by the Agar-Dilution
(§4) Method-24 hour MIC's (μg/ml)

[1] = test system: Peptostreptococcus intermedius; assay: as above; assay type: cell-based
Text: as §1, §2, §3, §4

P. magnus = assay: as above; assay type: cell-based; conditions: Finegoldia magna
Text: as §1, §2, §3, §4

[2] = test system: Peptococcus Asaccharolyticus; assay: as above; assay type: cell-based; conditions: Peptoniphilus asaccharolyticus, isolate 1344
Text: as §1, §2, §3, §4

[3] = test system: Peptostreptococcus anaerobius; assay: as above; assay type: cell-based
Text: as §1, §2, §3, §4

Peptococcus Constellatus = assay: as above; assay type: cell-based; conditions: Streptococcus constellatus, isolate 1468
Text: as §1, §2, §3, §4

[4] = Plasma concentration after intravenous dose in rats; assay type: in vivo; conditions: rat, intravenous 20 mg/kg
Method: For example, when 7-(2-naphthylglycylamido)-3-methyl-3-cephem-4-carboxylic acid was administered to rats at an intravenous dose of 20 mg/kg, the plasma concentration after one hour was 18.6 μg/ml; after four hours, 14.1 μg/ml; and after twenty-four hours, the plasm level was still measured as 1.96 μg/ml.

[5] = Oral absorption and blood levels in rodents; assay type: in vivo
Strep. PN = assay: Agar dilution MIC, Strep. PN; assay type: cell-based; conditions: Table I, strain PARK; read-out: MIC
Text: (§5) The following Tables present typical minimum inhibitory concentrations (MIC's) in μg/ml for the compounds when evaluated against the indicated microorganisms.

Staph. aureus = assay: Agar dilution MIC, Staph. aureus; assay type: cell-based; conditions: Staphylococcus aureus, read-out: MIC
Text: as §5

Propionibacterum acnes = assay: Susceptibility of anaerobes, agar-dilution, 24 hour MIC; assay type: cell-based
Text: as §1, §2, §3, §4

Bacteroides fragilis = assay: as above; assay type: cell-based
H. influ. = assay: Agar dilution MIC, H. influenza; assay type: cell-based; conditions: Table III, strain 102; read-out: MIC
Text: as §5

[6] = test system: β-lactamase (organism 1313G); assay: Stability to β-lactamases, 1313G; assay type: biochemical; conditions: lower numbers mean greater stability
β-lactamase (TEM) = assay: Stability to β-lactamases, TEM; assay type: biochemical; conditions: lower numbers mean greater stability
[7] = test system: β-lactamase (organism PS185); assay: Stability to β-lactamases, PS185; assay type: biochemical; conditions: lower numbers mean greater stability
B. Fragilis = assay: Expanded spectrum MIC, B. Fragilis; assay type: cell-based; conditions: Bacteroides fragilis, Table III, read-out: MIC
Text: as §1

[8] = test system: β-lactamase (organism 265A); assay: Stability to β-lactamases, 265A; assay type: biochemical; conditions: lower numbers mean greater stability
Klebsiella = assay: Agar dilution MIC, Klebsiella; assay type: cell-based; conditions: Klebsiella; Table I, strain X26; read-out: MIC
Text: as §1

Staph. epi = assay: Agar dilution MIC, Staph. epi; assay type: cell-based; conditions: read-out: MIC
Text: as §5

Strep. A = assay: Agar dilution MIC, Strep. A; assay type: cell-based; conditions: Table I, strain C203; read-out: MIC
Text: as §1

[9] = test system: β-lactamase (organism 1082E); assay: Stability to β-lactamases, 1082E; assay type: biochemical; conditions: lower numbers mean greater stability

With `CC1=C(C(=O)O)N2C(=O)C(NC(=O)[C@H](N)c3ccc4ccccc4c3)C2SC1` (stereo partly drawn) [Example 3, D-7-(2-naphthylglycylamido)-3-methyl-3-cephem-4-carboxylic acid tetrahydrate] the MIC (P. prevoti) was 0.5 µg/mL, the MIC ([1]; isolate 1264) was 1 µg/mL and the MIC ([1]; isolate 1524) was 1 µg/mL. It also gave an MIC ([1]; isolate 1624) of 1 µg/mL, an MIC (P. magnus; isolate 1401) of 0.25 µg/mL and an MIC (P. magnus; isolate 1477) of 0.5 µg/mL. It also gave an MIC [2] of no more than 0.125 µg/mL, an MIC ([3]; isolate 8) of no more than 0.125 µg/mL and an MIC ([3]; isolate 52) of 0.25 µg/mL. It also gave an MIC ([3]; isolate 1477) of no more than 0.125 µg/mL, an MIC (Peptococcus Constellatus) of 0.25 µg/mL and a concentration at 1 h ([4]; 1 hour, read-out: plasma concentration after one hour) of 18600 ng/mL. For the same compound, the concentration at 4 h ([4]; 4 hours, read-out: plasma concentration after four hours) was 14100 ng/mL, the concentration at 24 h ([4]; 24 hours, read-out: plasma level after twenty-four hours) was 1960 ng/mL and the “blood levels compared with cefaclor and cephalexin” value [5] was “higher and longer blood levels than cefaclor and cephalexin”. The oral absorption ([5]; oral) was “efficiently orally absorbed”, the MIC (Strep. PN) was 0.5 µg/mL and the MIC (Staph. aureus; Table I, strain V41) was 8 µg/mL. For the same compound, the MIC (Staph. aureus; Table I, strain X1.1) was 0.5 µg/mL, the MIC (Staph. aureus; Table I, strain X400) was 64 µg/mL and the MIC (Staph. aureus; Table II, strain S224) was 0.5 µg/mL. The MIC (Staph. aureus; Table II, strain S225) was 0.5 µg/mL, the MIC (Staph. aureus; Table II, strain S226) was 1 µg/mL and the MIC (Staph. aureus; Table II, strain S227) was 1 µg/mL. It also gave an MIC (Staph. aureus; Table II, strain S228) of 0.5 µg/mL, an MIC (Staph. aureus; Table II, strain S229) of 1 µg/mL and an MIC (Staph. aureus; Table II, strain S230) of 0.5 µg/mL. For the same compound, the MIC (Staph. aureus; Table II, strain S231) was 0.5 µg/mL, the MIC (Staph. aureus; Table II, strain S234) was 1 µg/mL and the MIC (Staph. aureus; Table II, strain S237) was 1 µg/mL. It also gave an MIC (Staph. aureus; Table II, strain S238) of 1 µg/mL, an MIC (Staph. aureus; Table II, strain S239) of 1 µg/mL and an MIC (Staph. aureus; Table III expanded spectrum, strain 8725) of 0.25 µg/mL. It also gave an MIC (Staph. aureus; Table III, strain 8438) of 0.25 µg/mL, an MIC (Staph. aureus; Table III, strain 8787) of 0.25 µg/mL and an MIC (Staph. aureus; Table III, strain 9050) of 0.5 µg/mL. It also gave an MIC (Staph. aureus; Table III, strain 9136) of 0.25 µg/mL, an MIC (Staph. aureus; Table III, strain 9290) of 1 µg/mL and an MIC (Staph. aureus; Table III, strain 9767) of 1 µg/mL. The MIC (Propionibacterum acnes; isolate 44) was 4 µg/mL, the MIC (Propionibacterum acnes; isolate 79) was 8 µg/mL and the MIC (Propionibacterum acnes; isolate 101) was 8 µg/mL. It also gave an MIC (Propionibacterum acnes; isolate 104) of 8 µg/mL, an MIC (Propionibacterum acnes; isolate 105) of 4 µg/mL and an MIC (Propionibacterum acnes; isolate 5191) of 0.25 µg/mL. It also gave an MIC (Propionibacterum acnes; isolate 5227) of 0.25 µg/mL, an MIC (Propionibacterum acnes; isolate 5228) of 8 µg/mL and an MIC (Propionibacterum acnes; isolate 5229) of 8 µg/mL. The MIC (Propionibacterum acnes; isolate 5246) was 8 µg/mL, the MIC (Bacteroides fragilis; isolate 200) was 32 µg/mL and the MIC (Bacteroides fragilis; isolate 206) was 16 µg/mL. For the same compound, the MIC (Bacteroides fragilis; isolate 3625) was 16 µg/mL, the MIC (Bacteroides fragilis; isolate 7371A) was 16 µg/mL and the MIC (Bacteroides fragilis; isolate 19671) was greater than 64 µg/mL. For the same compound, the MIC (Bacteroides fragilis; isolate 19681) was 16 µg/mL, the MIC (H. influ.) was 32 µg/mL and the “Stability to β-lactamases” value [6] was 256. The “Stability to β-lactamases” value (β-lactamase (TEM)) was 3, the “Stability to β-lactamases” value [7] was 25 and the MIC (B. Fragilis; strain 180-821) was 2 µg/mL. For the same compound, the MIC (B. Fragilis; strain 10668) was 32 µg/mL, the MIC (B. Fragilis; strain 10683) was 32 µg/mL and the MIC (B. Fragilis; strain 10695) was 4 µg/mL. For the same compound, the MIC (B. Fragilis; strain 10750) was 16 µg/mL, the MIC (B. Fragilis; strain 10774) was 16 µg/mL and the MIC (B. Fragilis; strain 10817) was 2 µg/mL. For the same compound, the MIC (B. Fragilis; strain 10837) was 16 µg/mL, the MIC (B. Fragilis; strain 107266) was 16 µg/mL and the MIC (B. Fragilis; strain 107268) was 8 µg/mL. For the same compound, the “Stability to β-lactamases” value [8] was 50, the MIC (Klebsiella) was 2 µg/mL and the MIC (Staph. epi; Table I, strain 222) was 0.5 µg/mL. For the same compound, the MIC (Staph. epi; Table I, strain EPI1) was 1 µg/mL, the MIC (Staph. epi; Table II expanded spectrum, strain EPI1) was 8 µg/mL and the MIC (Staph. epi; Table II, strain 219) was 0.5 µg/mL. The MIC (Staph. epi; Table II, strain 269) was 2 µg/mL, the MIC (Staph. epi; Table II, strain 270) was 4 µg/mL and the MIC (Staph. epi; Table II, strain 285) was 2 µg/mL. The MIC (Staph. epi; Table II, strain 286) was 1 µg/mL, the MIC (Strep. A) was 0.5 µg/mL and the “Stability to β-lactamases” value [9] was 26.
